Experimental data: PubChem BioAssay AID1963968 (Molecular Pharmacology Branch, DTP, NCI, 2024)

Tested on: 945468-187-T-J3-PDC spheroids with HUVEC/MSC, viability
Assay: Anticancer human tumor 945468-187-T-J3-PDC patient-derived rectal carcinoma cell line growth inhibition [PI3K]
Details: for IC50: curve of first compound; for viability, T/C: stronger effect = lower value
Procedure, shortened: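 Three cell types, namely tumor cells, endothelial cells and mesenchymal stem cells, formed each spheroid. Combinations with four PI3K inhibitors were screened at clinically achievable concentrations decreasing by half-log, and spheroid viability was recorded.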

[1] = second compound 0.0316 µM, first compound 0.0316 µM
[2] = second compound 0.0316 µM, first compound 0.1 µM
[3] = second compound 0.1 µM, first compound 0.0316 µM
[4] = second compound 0.1 µM, first compound 0.1 µM
[5] = second compound 0.316 µM, first compound 0.0316 µM
[6] = second compound 0.316 µM, first compound 0.1 µM
[7] = second compound 1 µM, first compound 0.0316 µM
[8] = second compound 1 µM, first compound 0.1 µM
[9] = second compound 3.16 µM, first compound 0.0316 µM
[10] = second compound 3.16 µM, first compound 0.1 µM
[11] = second compound 10 µM, first compound 0.0316 µM
[12] = second compound 10 µM, first compound 0.1 µM
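Also: spheroids exposed to agents for 7 days before viability read.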
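For viability, T/C in this document: 100% = DMSO vehicle control viability.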

Structure (SMILES): CC(C)n1nc(-c2ccc3oc(N)nc3c2)c2c(N)ncnc21 + CC(Nc1ncnc2nc[nH]c12)c1cc2cccc(Cl)c2c(=O)n1-c1ccccc1
- IC50 (second compound 0.0316 µM): > 100 nM
- IC50 (second compound 0.1 µM): > 100 nM
- IC50 (second compound 0.316 µM): > 100 nM
- IC50 (second compound 1 µM): > 100 nM
- IC50 (second compound 3.16 µM): 87.7 nM
- IC50 (second compound 10 µM): 70.7 nM
- viability, T/C (second compound 0.0316 µM, first compound 0.000316 µM): 105%
- viability, T/C (second compound 0.0316 µM, first compound 0.001 µM): 101%
- viability, T/C (second compound 0.0316 µM, first compound 0.00316 µM): 95%
- viability, T/C (second compound 0.0316 µM, first compound 0.01 µM): 99.1%
- viability, T/C [1]: 93.2%
- viability, T/C [2]: 62.2%
- viability, T/C (second compound 0.1 µM, first compound 0.000316 µM): 122%
- viability, T/C (second compound 0.1 µM, first compound 0.001 µM): 103%
- viability, T/C (second compound 0.1 µM, first compound 0.00316 µM): 101%
- viability, T/C (second compound 0.1 µM, first compound 0.01 µM): 91.9%
- viability, T/C [3]: 105%
- viability, T/C [4]: 50.5%
- viability, T/C (second compound 0.316 µM, first compound 0.000316 µM): 99%
- viability, T/C (second compound 0.316 µM, first compound 0.001 µM): 89.1%
- viability, T/C (second compound 0.316 µM, first compound 0.00316 µM): 102%
- viability, T/C (second compound 0.316 µM, first compound 0.01 µM): 97.1%
- viability, T/C [5]: 104%
- viability, T/C [6]: 59.5%
- viability, T/C (second compound 1 µM, first compound 0.000316 µM): 99.7%
- viability, T/C (second compound 1 µM, first compound 0.001 µM): 98.4%
- viability, T/C (second compound 1 µM, first compound 0.00316 µM): 98.3%
- viability, T/C (second compound 1 µM, first compound 0.01 µM): 112%
- viability, T/C [7]: 96%
- viability, T/C [8]: 51.1%
- viability, T/C (second compound 3.16 µM, first compound 0.000316 µM): 104%
- viability, T/C (second compound 3.16 µM, first compound 0.001 µM): 89.8%
- viability, T/C (second compound 3.16 µM, first compound 0.00316 µM): 99.1%
- viability, T/C (second compound 3.16 µM, first compound 0.01 µM): 101%
- viability, T/C [9]: 103%
- viability, T/C [10]: 43.6%
- viability, T/C (second compound 10 µM, first compound 0.000316 µM): 103%
- viability, T/C (second compound 10 µM, first compound 0.001 µM): 96.9%
- viability, T/C (second compound 10 µM, first compound 0.00316 µM): 93.5%
- viability, T/C (second compound 10 µM, first compound 0.01 µM): 87%
- viability, T/C [11]: 89.3%
- viability, T/C [12]: 33.7%

Structure (SMILES): CCCS(=O)(=O)Nc1ccc(F)c(C(=O)c2c[nH]c3ncc(-c4ccc(Cl)cc4)cc23)c1F + CC(Nc1ncnc2nc[nH]c12)c1cc2cccc(Cl)c2c(=O)n1-c1ccccc1
- IC50 (second compound 0.0316 µM): 8200 nM
- IC50 (second compound 0.1 µM): > 10000 nM
- IC50 (second compound 0.316 µM): > 10000 nM
- IC50 (second compound 1 µM): > 10000 nM
- IC50 (second compound 3.16 µM): > 10000 nM
- IC50 (second compound 10 µM): > 10000 nM
- viability, T/C [1]: 100%
- viability, T/C [2]: 96.7%
- viability, T/C (second compound 0.0316 µM, first compound 0.316 µM): 103%
- viability, T/C (second compound 0.0316 µM, first compound 1 µM): 101%
- viability, T/C (second compound 0.0316 µM, first compound 3.16 µM): 99.2%
- viability, T/C (second compound 0.0316 µM, first compound 10 µM): 39.8%
- viability, T/C [3]: 104%
- viability, T/C [4]: 95.8%
- viability, T/C (second compound 0.1 µM, first compound 0.316 µM): 93.8%
- viability, T/C (second compound 0.1 µM, first compound 1 µM): 91.3%
- viability, T/C (second compound 0.1 µM, first compound 3.16 µM): 111%
- viability, T/C (second compound 0.1 µM, first compound 10 µM): 77.9%
- viability, T/C [5]: 102%
- viability, T/C [6]: 101%
- viability, T/C (second compound 0.316 µM, first compound 0.316 µM): 91.7%
- viability, T/C (second compound 0.316 µM, first compound 1 µM): 99.3%
- viability, T/C (second compound 0.316 µM, first compound 3.16 µM): 98.3%
- viability, T/C (second compound 0.316 µM, first compound 10 µM): 60.6%
- viability, T/C [7]: 88.6%
- viability, T/C [8]: 92.8%
- viability, T/C (second compound 1 µM, first compound 0.316 µM): 89.4%
- viability, T/C (second compound 1 µM, first compound 1 µM): 92%
- viability, T/C (second compound 1 µM, first compound 3.16 µM): 101%
- viability, T/C (second compound 1 µM, first compound 10 µM): 68.7%
- viability, T/C [9]: 92.6%
- viability, T/C [10]: 91.3%
- viability, T/C (second compound 3.16 µM, first compound 0.316 µM): 102%
- viability, T/C (second compound 3.16 µM, first compound 1 µM): 105%
- viability, T/C (second compound 3.16 µM, first compound 3.16 µM): 105%
- viability, T/C (second compound 3.16 µM, first compound 10 µM): 56.5%
- viability, T/C [11]: 91.3%
- viability, T/C [12]: 99.4%
- viability, T/C (second compound 10 µM, first compound 0.316 µM): 94.8%
- viability, T/C (second compound 10 µM, first compound 1 µM): 92.2%
- viability, T/C (second compound 10 µM, first compound 3.16 µM): 105%
- viability, T/C (second compound 10 µM, first compound 10 µM): 94.1%
